Experimental data as given in ChEMBL document CHEMBL6182889, “Discovery of the first-in-class DOT1L PROTAC degrader” (Eur J Med Chem, 2025).
Activity calls are given as the source filed them. The rule behind the calls is not given here.

What was measured:
[1] = molecular target: T1, von Hippel-Lindau disease tumor suppressor/Histone-lysine N-methyltransferase, H3 lysine-79 specific (Homo sapiens, UniProt Q8TEK3+P40337); experiment: PROTAC activity at VHL/DOTIL in mixed-lineage leukemia rearranged (MLL-r) human THP-1 cells assessed as induction of DOT1L degradation by measuring fold change in DOTIL protein level at 3 uM incubated for 24 hrs by western blot analysis relative to control; type: cell-based
Target sequence in this assay (P40337 whole entry, looked up): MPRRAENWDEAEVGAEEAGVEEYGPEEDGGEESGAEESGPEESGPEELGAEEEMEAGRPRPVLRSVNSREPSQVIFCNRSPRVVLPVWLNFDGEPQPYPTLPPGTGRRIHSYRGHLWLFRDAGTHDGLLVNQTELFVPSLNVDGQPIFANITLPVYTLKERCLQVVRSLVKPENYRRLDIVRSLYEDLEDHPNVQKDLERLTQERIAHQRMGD
Target sequence in this assay (Q8TEK3 whole entry, looked up): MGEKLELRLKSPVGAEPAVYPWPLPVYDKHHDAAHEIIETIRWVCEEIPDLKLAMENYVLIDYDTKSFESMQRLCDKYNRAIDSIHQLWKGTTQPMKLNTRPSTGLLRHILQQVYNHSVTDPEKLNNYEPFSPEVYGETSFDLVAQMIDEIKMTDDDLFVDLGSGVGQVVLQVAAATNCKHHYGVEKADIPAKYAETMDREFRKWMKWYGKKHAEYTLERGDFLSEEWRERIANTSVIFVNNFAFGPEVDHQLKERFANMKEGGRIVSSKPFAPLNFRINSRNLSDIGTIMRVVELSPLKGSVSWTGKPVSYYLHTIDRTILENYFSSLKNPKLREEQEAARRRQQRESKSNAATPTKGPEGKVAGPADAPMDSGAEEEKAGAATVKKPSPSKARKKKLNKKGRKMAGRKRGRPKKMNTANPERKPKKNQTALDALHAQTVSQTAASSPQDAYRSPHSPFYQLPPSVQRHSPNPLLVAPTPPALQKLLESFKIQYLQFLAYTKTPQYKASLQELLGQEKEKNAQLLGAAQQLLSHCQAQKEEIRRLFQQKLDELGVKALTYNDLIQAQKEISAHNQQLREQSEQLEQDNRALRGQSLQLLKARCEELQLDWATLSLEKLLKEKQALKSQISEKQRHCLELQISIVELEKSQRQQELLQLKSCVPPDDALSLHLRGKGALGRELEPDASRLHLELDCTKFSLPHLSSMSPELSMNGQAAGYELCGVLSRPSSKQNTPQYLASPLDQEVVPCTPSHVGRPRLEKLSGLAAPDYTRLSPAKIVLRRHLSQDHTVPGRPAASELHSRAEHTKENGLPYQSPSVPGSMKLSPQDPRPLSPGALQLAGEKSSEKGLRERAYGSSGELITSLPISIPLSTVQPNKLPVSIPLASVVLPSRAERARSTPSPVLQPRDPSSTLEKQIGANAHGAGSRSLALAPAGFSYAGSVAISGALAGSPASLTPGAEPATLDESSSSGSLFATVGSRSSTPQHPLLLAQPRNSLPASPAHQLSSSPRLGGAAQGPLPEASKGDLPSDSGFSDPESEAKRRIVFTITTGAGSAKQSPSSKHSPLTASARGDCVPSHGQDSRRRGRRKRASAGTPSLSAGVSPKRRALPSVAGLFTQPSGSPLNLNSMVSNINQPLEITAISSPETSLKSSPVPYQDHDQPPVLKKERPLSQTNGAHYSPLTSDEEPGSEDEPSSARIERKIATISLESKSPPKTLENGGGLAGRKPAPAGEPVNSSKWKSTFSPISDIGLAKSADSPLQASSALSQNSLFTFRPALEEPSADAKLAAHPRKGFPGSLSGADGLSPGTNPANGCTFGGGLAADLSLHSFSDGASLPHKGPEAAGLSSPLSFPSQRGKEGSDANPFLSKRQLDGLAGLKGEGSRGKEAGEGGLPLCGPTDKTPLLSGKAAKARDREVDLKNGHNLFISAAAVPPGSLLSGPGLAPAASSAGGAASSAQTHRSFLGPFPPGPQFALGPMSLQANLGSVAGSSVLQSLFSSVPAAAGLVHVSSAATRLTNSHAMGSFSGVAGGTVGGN

[2] = molecular target: T1, von Hippel-Lindau disease tumor suppressor/Histone-lysine N-methyltransferase, H3 lysine-79 specific; experiment: PROTAC activity at VHL/DOT1L in mixed-lineage leukemia rearranged (MLL-r) human THP-1 cells assessed as induction of DOT1L degradation incubated for 24 hrs by western blot analysis; type: cell-based
[3] = molecular target: T1, von Hippel-Lindau disease tumor suppressor/Histone-lysine N-methyltransferase, H3 lysine-79 specific; experiment: PROTAC activity at VHL/DOT1L in mixed-lineage leukemia rearranged (MLL-r) human THP-1 cells assessed as maximal induction of DOT1L degradation incubated for 24 hrs by western blot analysis relative to control; type: cell-based
Target sequence in this assay (P40337 whole entry, looked up): as the sequence (P40337 whole entry, looked up) above
Target sequence in this assay (Q8TEK3 whole entry, looked up): as the sequence (Q8TEK3 whole entry, looked up) above

[4] = molecular target: T1, von Hippel-Lindau disease tumor suppressor/Histone-lysine N-methyltransferase, H3 lysine-79 specific; experiment: PROTAC activity at VHL/DOT1L in mixed-lineage leukemia rearranged (MLL-r) human THP-1 cells assessed as induction of DOTIL degradation by measuring fold change in DOT1L protein level at 3 uM incubated for 1 hr by western blot analysis relative to control; type: cell-based
Target sequence in this assay (P40337 whole entry, looked up): as the sequence (P40337 whole entry, looked up) above
Target sequence in this assay (Q8TEK3 whole entry, looked up): as the sequence (Q8TEK3 whole entry, looked up) above

[5] = molecular target: T1, von Hippel-Lindau disease tumor suppressor/Histone-lysine N-methyltransferase, H3 lysine-79 specific; experiment: PROTAC activity at VHL/DOT1L in mixed-lineage leukemia rearranged (MLL-r) human MV4-11 cells assessed as induction of DOTIL degradation by measuring fold change in DOT1L protein level at 3 uM incubated for 2 hrs by western blot analysis relative to control; type: cell-based
Target sequence in this assay (P40337 whole entry, looked up): as the sequence (P40337 whole entry, looked up) above
Target sequence in this assay (Q8TEK3 whole entry, looked up): as the sequence (Q8TEK3 whole entry, looked up) above

[6] = molecular target: T1, von Hippel-Lindau disease tumor suppressor/Histone-lysine N-methyltransferase, H3 lysine-79 specific; experiment: PROTAC activity at VHL/DOT1L in mixed-lineage leukemia rearranged (MLL-r) human MV4-11 cells assessed as induction of DOTIL degradation by measuring fold change in DOT1L protein level at 3 uM incubated for 24 hrs by western blot analysis relative to control; type: cell-based
Target sequence in this assay (P40337 whole entry, looked up): as the sequence (P40337 whole entry, looked up) above
Target sequence in this assay (Q8TEK3 whole entry, looked up): as the sequence (Q8TEK3 whole entry, looked up) above

[7] = molecular target: T1, von Hippel-Lindau disease tumor suppressor/Histone-lysine N-methyltransferase, H3 lysine-79 specific; experiment: PROTAC activity at VHL/DOT1L in mixed-lineage leukemia rearranged (MLL-r) human MV4-11 cells assessed as induction of DOTIL degradation by measuring fold change in H3K79Me2 level at 3 uM incubated for 48 hrs by western blot analysis relative to control; type: cell-based
Target sequence in this assay (P40337 whole entry, looked up): as the sequence (P40337 whole entry, looked up) above
Target sequence in this assay (Q8TEK3 whole entry, looked up): as the sequence (Q8TEK3 whole entry, looked up) above

[8] = molecular target: T1, von Hippel-Lindau disease tumor suppressor/Histone-lysine N-methyltransferase, H3 lysine-79 specific; experiment: PROTAC activity against VHL/DOT1L in mixed-lineage leukemia rearranged (MLL-r) human THP-1 cells assessed as induction of DOT1L degradation at 3 uM preincubated with NAE inhibitor, MLN4924 for 1 hr followed by incubation with compound for 8 hrs by western blot analysis; type: cell-based
[9] = tested on: MOLM-13; experiment: Effect on DOT1L mRNA expression in mixed-lineage leukemia rearranged (MLL-r) human MOLM-13 cells at 3 uM incubated for 24 hrs by RT-qPCR analysis; type: functional, cell-based
[10] = molecular target: DNA (cytosine-5)-methyltransferase 3A (Homo sapiens) (UniProt Q9Y6K1); experiment: Inhibition of human DNMT3a using lambda DNA and SAM as substrate at 10 uM by radiometric Hotspot assay
[11] = molecular target: DNA (cytosine-5)-methyltransferase 3B (Homo sapiens) (UniProt Q9UBC3); experiment: Inhibition of human full length DNMT3b using lambda DNA and SAM as substrate at 10 uM by radiometric Hotspot assay
[12] = molecular target: Histone-lysine N-methyltransferase EZH2 (Homo sapiens) (UniProt Q15910); experiment: Inhibition of human EZH2 using core histone and SAM as substrate at 10 uM by radiometric Hotspot assay
[13] = molecular target: T2, Histone-lysine N-methyltransferase EHMT2 (Homo sapiens) (UniProt Q96KQ7); experiment: Inhibition of human G9a using Histone H3 and SAM as substrate at 10 uM by radiometric Hotspot assay
T2 sequence (whole entry): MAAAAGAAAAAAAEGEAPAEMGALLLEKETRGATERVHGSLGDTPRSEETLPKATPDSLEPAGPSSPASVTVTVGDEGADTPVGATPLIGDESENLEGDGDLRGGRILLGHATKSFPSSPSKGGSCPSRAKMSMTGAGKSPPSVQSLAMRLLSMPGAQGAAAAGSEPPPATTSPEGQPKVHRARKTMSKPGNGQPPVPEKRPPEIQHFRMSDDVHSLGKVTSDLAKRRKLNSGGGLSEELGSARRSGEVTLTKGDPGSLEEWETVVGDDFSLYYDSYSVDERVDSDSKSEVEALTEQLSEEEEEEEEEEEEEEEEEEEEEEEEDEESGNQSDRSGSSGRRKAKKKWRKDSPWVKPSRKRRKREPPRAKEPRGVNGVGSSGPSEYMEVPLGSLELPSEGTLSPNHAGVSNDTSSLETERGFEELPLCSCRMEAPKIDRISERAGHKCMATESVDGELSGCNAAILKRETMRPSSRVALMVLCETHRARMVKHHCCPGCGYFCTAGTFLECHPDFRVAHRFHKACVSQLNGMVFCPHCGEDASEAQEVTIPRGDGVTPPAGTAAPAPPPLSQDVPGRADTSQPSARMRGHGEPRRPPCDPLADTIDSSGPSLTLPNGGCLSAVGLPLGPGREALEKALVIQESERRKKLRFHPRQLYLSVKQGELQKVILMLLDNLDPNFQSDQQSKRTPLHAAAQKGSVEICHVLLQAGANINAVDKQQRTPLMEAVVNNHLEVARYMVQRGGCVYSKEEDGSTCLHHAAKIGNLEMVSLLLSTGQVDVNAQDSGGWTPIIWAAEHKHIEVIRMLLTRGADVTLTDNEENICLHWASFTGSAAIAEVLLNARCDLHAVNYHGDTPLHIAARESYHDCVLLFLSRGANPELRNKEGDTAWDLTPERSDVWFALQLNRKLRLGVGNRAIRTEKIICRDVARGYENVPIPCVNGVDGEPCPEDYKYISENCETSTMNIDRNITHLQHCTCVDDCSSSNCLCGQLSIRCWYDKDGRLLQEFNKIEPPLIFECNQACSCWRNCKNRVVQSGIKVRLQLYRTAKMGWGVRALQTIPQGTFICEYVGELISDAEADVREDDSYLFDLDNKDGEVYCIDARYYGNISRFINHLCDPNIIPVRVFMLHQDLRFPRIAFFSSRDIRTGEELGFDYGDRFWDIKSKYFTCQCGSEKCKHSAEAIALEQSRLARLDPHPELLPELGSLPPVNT

[14] = molecular target: Histone-lysine N-methyltransferase 2A (Homo sapiens) (UniProt Q03164); experiment: Inhibition of human MLL1 using nucleosomes and SAM as substrate at 10 uM by radiometric Hotspot assay
[15] = molecular target: Protein arginine N-methyltransferase 1 (Homo sapiens) (UniProt Q99873); experiment: Inhibition of human PRMT1 using histone H4 and SAM as substrate at 10 uM by radiometric Hotspot assay
[16] = molecular target: PRMT5/MEP50 complex (Homo sapiens) (UniProt O14744+Q9BQA1); experiment: Inhibition of human PRMT5/MEP50 complex using histone H2A and SAM as substrate at 10 uM by radiometric Hotspot assay; type: protein-complex assay
[17] = tested on: PNT2; experiment: Cytotoxicity against human PNT2 cells assessed as inhibition of cell growth incubated for 7 days by CCK-8 assay; type: toxicity, cell-based; conditions: pnt2, 168 h, time 7 day

Chain of DNA (cytosine-5)-methyltransferase 3A (Homo sapiens) (Q9Y6K1 whole entry, looked up): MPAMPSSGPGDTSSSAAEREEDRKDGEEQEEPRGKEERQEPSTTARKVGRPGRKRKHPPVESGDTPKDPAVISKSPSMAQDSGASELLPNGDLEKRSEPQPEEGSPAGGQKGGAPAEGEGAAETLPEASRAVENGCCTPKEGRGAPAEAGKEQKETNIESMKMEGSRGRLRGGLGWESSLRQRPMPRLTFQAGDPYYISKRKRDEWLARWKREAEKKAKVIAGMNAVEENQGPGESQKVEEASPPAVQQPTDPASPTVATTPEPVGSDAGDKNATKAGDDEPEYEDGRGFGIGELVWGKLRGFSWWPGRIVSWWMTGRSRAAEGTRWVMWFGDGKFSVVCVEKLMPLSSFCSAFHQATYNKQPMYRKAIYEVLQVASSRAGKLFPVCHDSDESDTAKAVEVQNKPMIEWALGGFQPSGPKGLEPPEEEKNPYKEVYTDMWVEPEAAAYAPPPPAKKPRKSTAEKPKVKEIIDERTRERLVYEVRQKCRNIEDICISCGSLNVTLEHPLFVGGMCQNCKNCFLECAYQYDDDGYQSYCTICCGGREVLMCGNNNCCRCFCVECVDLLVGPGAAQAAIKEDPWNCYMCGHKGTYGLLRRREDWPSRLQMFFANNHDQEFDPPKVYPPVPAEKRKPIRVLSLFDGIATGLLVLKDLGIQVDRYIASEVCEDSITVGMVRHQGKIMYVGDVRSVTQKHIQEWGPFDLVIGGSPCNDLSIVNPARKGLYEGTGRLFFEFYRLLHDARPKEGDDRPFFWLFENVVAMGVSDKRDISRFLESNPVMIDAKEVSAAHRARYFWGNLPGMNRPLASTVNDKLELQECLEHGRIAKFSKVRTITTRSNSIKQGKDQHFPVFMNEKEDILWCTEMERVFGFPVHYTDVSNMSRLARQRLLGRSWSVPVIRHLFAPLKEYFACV
Chain of Protein arginine N-methyltransferase 1 (Homo sapiens) (Q99873 whole entry, looked up): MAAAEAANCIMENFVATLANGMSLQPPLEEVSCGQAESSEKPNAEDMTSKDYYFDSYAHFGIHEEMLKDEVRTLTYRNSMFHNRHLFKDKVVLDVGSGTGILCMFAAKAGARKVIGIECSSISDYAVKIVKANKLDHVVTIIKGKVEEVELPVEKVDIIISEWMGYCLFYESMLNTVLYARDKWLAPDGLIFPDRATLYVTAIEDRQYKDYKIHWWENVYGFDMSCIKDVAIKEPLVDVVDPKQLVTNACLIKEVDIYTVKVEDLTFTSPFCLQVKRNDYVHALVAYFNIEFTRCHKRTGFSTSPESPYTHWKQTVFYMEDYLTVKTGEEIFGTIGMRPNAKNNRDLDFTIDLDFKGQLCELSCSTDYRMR
Chain of Histone-lysine N-methyltransferase EZH2 (Homo sapiens) (Q15910 whole entry, looked up): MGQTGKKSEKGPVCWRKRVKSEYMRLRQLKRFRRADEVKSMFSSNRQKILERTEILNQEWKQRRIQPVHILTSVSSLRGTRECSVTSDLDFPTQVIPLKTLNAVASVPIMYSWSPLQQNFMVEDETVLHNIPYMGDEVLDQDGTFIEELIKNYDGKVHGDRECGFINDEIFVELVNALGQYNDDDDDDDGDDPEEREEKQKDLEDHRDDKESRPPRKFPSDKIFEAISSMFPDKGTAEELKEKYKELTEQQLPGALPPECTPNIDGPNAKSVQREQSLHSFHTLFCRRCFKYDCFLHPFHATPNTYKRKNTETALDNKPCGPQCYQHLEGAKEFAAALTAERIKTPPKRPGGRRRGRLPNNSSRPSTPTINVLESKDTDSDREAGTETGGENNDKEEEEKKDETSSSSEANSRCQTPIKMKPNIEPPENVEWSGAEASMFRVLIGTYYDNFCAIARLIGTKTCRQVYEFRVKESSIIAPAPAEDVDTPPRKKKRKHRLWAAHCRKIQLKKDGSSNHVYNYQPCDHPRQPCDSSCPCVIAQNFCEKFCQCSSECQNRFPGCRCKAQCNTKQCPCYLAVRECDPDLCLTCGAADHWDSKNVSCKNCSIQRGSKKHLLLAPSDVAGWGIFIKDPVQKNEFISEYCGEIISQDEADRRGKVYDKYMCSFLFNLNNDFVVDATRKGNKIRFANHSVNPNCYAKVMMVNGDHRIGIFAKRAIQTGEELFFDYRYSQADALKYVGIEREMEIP

- fold change (FC) [1]: 0.08
- Activity [2]: Dose-dependent-effect
- DC50 [2]: 0.056 µM
- Activity [3]: 69%
- fold change (FC) [4]: 0.33
- fold change (FC) [5]: 0.86
- fold change (FC) [6]: 0.07
- fold change (FC) [7]: 0.12
- Activity [8]: inactive
- inhibition [10]: inactive
- inhibition [11]: inactive
- inhibition [12]: inactive
- inhibition [13]: inactive
- inhibition [14]: inactive
- inhibition [15]: inactive
- inhibition [16]: inactive
Compound: Cc1ncsc1-c1ccc([C@H](CC(=O)NCCCCCCNC(=O)COc2nc(N)nc(Nc3cc(S(N)(=O)=O)ccc3N[C@@H](c3cccc4c3OC(F)(F)O4)c3ncccc3Cl)n2)NC(=O)[C@@H]2C[C@@H](O)CN2C(=O)[C@@H](NC(=O)C2(F)CC2)C(C)(C)C)cc1
- Activity [9]: inactive
- Activity [17]: Non-toxic
